Seven compounds from patent US20030114529A1, “Hydroxamic acid thrombospondin peptide analog that inhibits aggrecanase activity” (priority 2001, published 2003) can be followed below.

Bounds are passed on as bounds.

One test deals with T1, Collagenase MMP-1 (Homo sapiens, UniProt P03956).
T1 sequence (P03956 100-469): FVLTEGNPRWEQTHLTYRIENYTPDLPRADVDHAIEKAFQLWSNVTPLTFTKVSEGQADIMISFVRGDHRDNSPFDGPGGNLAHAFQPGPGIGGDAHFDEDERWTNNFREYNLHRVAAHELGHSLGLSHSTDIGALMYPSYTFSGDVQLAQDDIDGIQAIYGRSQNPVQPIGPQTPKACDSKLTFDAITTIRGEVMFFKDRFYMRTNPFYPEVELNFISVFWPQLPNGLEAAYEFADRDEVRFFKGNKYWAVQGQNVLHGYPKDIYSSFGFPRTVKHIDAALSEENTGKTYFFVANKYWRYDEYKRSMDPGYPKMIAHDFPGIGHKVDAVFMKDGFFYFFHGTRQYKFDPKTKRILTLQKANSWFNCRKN
The experiment in a line: Inhibition of collagenase MMP-1 by hydroxamic acids. The class given is biochemical. Particulars: for Ki: Ki = IC50/(1 + [S]/Km), read-out: Apparent Ki Collagenase MMP-1.

Another test addresses T2, gelatinase MMP-2 (Homo sapiens, UniProt P08253).
T2 sequence (P08253 110-660): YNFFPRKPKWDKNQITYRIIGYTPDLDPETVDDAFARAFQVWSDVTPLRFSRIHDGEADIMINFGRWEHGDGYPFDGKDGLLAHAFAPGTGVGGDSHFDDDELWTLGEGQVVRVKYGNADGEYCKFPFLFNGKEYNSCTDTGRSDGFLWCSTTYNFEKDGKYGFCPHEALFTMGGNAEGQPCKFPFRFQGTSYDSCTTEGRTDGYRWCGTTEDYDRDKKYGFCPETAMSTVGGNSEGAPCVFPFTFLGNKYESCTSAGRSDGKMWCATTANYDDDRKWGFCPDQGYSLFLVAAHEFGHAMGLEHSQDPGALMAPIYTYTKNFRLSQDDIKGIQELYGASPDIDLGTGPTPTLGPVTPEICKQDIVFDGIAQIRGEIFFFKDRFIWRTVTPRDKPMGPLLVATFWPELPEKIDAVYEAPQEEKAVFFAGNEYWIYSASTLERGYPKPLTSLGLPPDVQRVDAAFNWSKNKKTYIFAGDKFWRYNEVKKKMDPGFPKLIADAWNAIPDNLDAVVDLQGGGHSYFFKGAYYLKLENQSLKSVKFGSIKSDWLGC
The experiment in a line: Inhibition of gelatinase MMP-2 by hydroxamic acids. The format is biochemical. As to conditions: for Ki: Ki = IC50/(1 + [S]/Km), read-out: Apparent Ki gelatinase MMP-2.

The next test addresses stromelysin MMP-3 (Homo sapiens, UniProt P08254). The experiment in a line: Inhibition of stromelysin MMP-3 by hydroxamic acids. The format is biochemical. As to conditions: for Ki: Ki = IC50/(1 + [S]/Km), read-out: Apparent Ki stromelysin MMP-3.
The test system of test [1] is ADAMTS-4/ADAMTS-5 (aggrecanase). The experiment in a line: Inhibition of aggrecan cleavage at Glu1480-Gly1481 by recombinant ADAMTS-4/ADAMTS-5 (Western blot, densitometry). The format is biochemical, Human. As to conditions: aggrecan 500 nM, enzyme 5 nM, 2 hours, 37° C.; Ki = IC50/(1 + [S]/Km); read-out: Apparent Ki aggrecanase ADAM-TS4/5. The procedure:
A series of newly synthesized hydroxamic acids (FIG. 1) were tested for their ability to inhibit recombinant ADAMTS-4/ADAM-TS5 as well a several matrix metalloproteinases (MMPs). In this study aggrecan, at a concentration of 500 nM, was incubated for 2 hours at 37° C. with 5 nM of either ADAMTS-4/ADAM-TS5 in the presence or absence of one of the hydroxamic acids at a concentration range from 0.1 to 1000 nM. Subsequently, the fractions were analysed for cleavage of aggrecan at the Glu^1480-^1481Gly site by Western Blot analysis, using a specific antibody recognizing the new C-terminus GELE^1480. Inhibition of cleavage was determined by scanning densitometry and the Ki values were determined (Table 1).
Digestions were carried out in 100 μl of 50 mM Tris/HCl buffer, pH 7.5, containing 100 mM NaCl and 10 mM CaCl2. Human recombinant ADAMTS-4/ADAMTS-5 were prepared as described (1, 2). Purified bovine aggrecan (12) (500 nM) was incubated with 5 nM ADAMTS-4/ADAMTS-5 at 37° C. for 2 hours, in the absence or presence of each of the hydroxamates described above, at concentrations ranging from […]. Following the incubation, cleavage of aggrecan at the Glu^1480-^1481Gly bond was monitored by Western Blot analysis, using the neoepitope antibody that recognizes the new C-terminus GELE^1480, as previously described (12).
On the technique in general: A western blot detects proteins with antibodies after separation by electrophoresis.

Test [2] relates to Pig articular cartilage explants. Nature of the test: IL-1 induced aggrecan degradation in pig articular cartilage explants (GAG release, DMMB assay). The class given is cell-based. As to conditions: 72 hours; for IC50: Sus scrofa, pig explants, IL-1α, inhibitor 0.1 to 10 μM. The procedure:
(§1) The same compounds were tested for the ability to block aggrecan cleavage in an in vitro model of cartilage degradation. Pig articular cartilage explants were cultured for 72 hours in the presence of IL-α, with or without one of the inhibitors at a concentration range og 0.1 to 10 μM. Culture media were assessed for the level of glycosaminoglycan chains (GAG) by dimethyl methylene blue (DMMB) assay, as a measure of aggrecan breakdown and IC50 values were calculated (Table 1). […] Therefore, we tested JWD40 for its ability to prevent aggrecan degradation in osteoarthritic (OA) cartilage. Human OA cartilage explants were cultured with or without JWD40, 0.1 to 10 μM. After 48 hours, media were analyzed for the presence of aggrecan products generated by cleavage by aggrecanase, containing the new N-terminus ^374ARGSV.
Articular cartilage was dissected from the knees of young pigs. Cartilage was allowed to equilibrate for 3 days in DMEM supplemented with 10% FCS, penicillin (100 U/ml) and streptomycin (100 μg/ml). Subsequently, cartilage was cut into 3×3 mm explants, weighing approximately 10-20 mg each, and incubated in 96-well plates for 72 hours with either control medium (serum-free DMEM),ml), IL-1α (100 ng/ml), or IL-1α (100 ng/ml) plus a series of hydroxamic acids at a concentration range of 0.1 μM to 10 μM. At the end of the culture period, glycosaminoglycan (GAG) levels in the culture media were determined by dimethylmethylene blue (DMMB) assay, as described by Farndale et al (13).

For test [3], the system named is Human OA cartilage explants. Nature of the test: Aggrecanase-generated aggrecan fragment release from human osteoarthritic cartilage explants. The class given is cell-based. Particulars: 0.1 to 10 μM, 48 hours. The procedure: as §1
Articular cartilage was dissected from the hips of patients with osteoarthritis at the time of joint replacement. Cartilage was allowed to equilibrate for 3 days in DMEM supplemented with penicillin (100 U/ml) and streptomycin (100 μg/ml). […] At the end of the culture period, the media were analyzed for aggrecan fragments generated by cleavage of aggrecan by aggrecanase, using a neoepitope that recognizes the new N-terminus […] (14).

A further test relates to aggrecanase-1 (ADAMTS4). The experiment in a line: Protection of native aggrecan from cleavage by full length aggrecanase-1 (Western blot, MAB2035). The format is biochemical. Particulars: peptide 100 μM, ADAMTS4 5 nM, aggrecan 500 nM, 5 hours, 37° C. The procedure:
An aggrecan binding peptide sequence derived from thrombospondin motif of aggrecanase-1 was tested for its ability to protect aggrecan from degradation by aggrecanase. Full length aggrecanase-1 (ADAMTS4), 5 nM, was incubated with native aggrecan, 500 nM, for 5 hours at 37° C. in the presence of the thrombospondin peptide GGWGPWGPWGDCSRTCGGG, 100 μM (Seq. No. 14). Aggrecan cleavage products were measured by Western blot analysis using the monoclonal antibody MAB2035.

Where [4] appears, read: compared with Ki against aggrecanase.

Chain of stromelysin MMP-3 (P08254 100-477): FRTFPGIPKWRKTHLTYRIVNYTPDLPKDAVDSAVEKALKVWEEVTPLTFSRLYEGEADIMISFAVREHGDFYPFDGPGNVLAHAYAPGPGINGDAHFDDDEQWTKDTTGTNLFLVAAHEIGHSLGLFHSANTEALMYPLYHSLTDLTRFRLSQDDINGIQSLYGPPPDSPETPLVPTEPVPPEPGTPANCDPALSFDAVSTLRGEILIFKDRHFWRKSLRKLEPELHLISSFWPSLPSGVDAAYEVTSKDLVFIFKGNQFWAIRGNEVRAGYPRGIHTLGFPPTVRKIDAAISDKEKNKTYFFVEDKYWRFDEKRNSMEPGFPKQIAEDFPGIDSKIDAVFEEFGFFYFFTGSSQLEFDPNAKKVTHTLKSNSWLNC

On to `CNC(=O)C(Cc1ccccc1)NC(=O)C(CC(=O)O)CC(C)C` (stereo not shown) [JWD-18], for which the Ki is 0.995 µM on Collagenase MMP-1, greater than 1 µM on gelatinase MMP-2, greater than 1 µM at stromelysin MMP-3 and greater than 10 µM in test [1]. The half-inhibitory concentration (IC50) – broadly, the point on the concentration scale where inhibition reaches its midpoint – in test [2] was greater than 100 µM.
For the compound `CNC(=O)C(Cc1ccc(OCc2ccccc2)cc1)NC(=O)C(CC(=O)NO)CC(C)C` (stereo not shown) [JWC-100], the Ki was 0.001 µM on Collagenase MMP-1, less than 0.0001 µM on gelatinase MMP-2, 0.0009 µM on stromelysin MMP-3 and 0.16 µM in test [1]. The compound also registered an IC50 in test [2] of 6 µM.
The like results for `CNC(=O)C(CCc1ccccc1)NC(=O)C(CC(=O)NO)CC(C)C` (stereo not shown) [JWC-97] were, in that order, 0.0074 µM, 0.0023 µM, 0.135 µM, 0.062 µM and 1.8 µM.
`CNC(=O)C(C)NC(=O)C(CC(=O)NO)CC(C)C` (stereo not shown) [JWD-52]: the Ki on Collagenase MMP-1 is 0.076 µM; at gelatinase MMP-2, 0.059 µM; in test [1] it was 0.035 µM.
For `CNC(=O)C(Cc1ccc(F)cc1)NC(=O)C(CC(=O)NO)CC(C)C` (stereo not shown) [JWC-95], the Ki at Collagenase MMP-1 is 0.0059 µM; on gelatinase MMP-2, 0.0023 µM; on stromelysin MMP-3, 0.065 µM; in test [1], 0.098 µM. The IC50 in test [2] came to 2.9 µM.
On to `CNC(=O)[C@@H](NC(=O)[C@@H](CC(=O)NO)CC(C)C)C(C)C` [JWD-40], for which the Ki on Collagenase MMP-1 worked out at 0.026 µM; on gelatinase MMP-2, 0.036 µM; on stromelysin MMP-3 it was 0.125 µM; in test [1], 0.017 µM. For the same compound, the “Potency against MMP-1 relative to aggrecanase” value at Collagenase MMP-1 (setting [4]) is given as “twofold less potent”. Moreover, the “Potency against MMP-2 relative to aggrecanase” value at gelatinase MMP-2 (setting [4]) is “twofold less potent”. Also, the “Potency against MMP-3 relative to aggrecanase” value on stromelysin MMP-3 (setting [4]) is recorded as “a log less potency”. The compound further had a half-maximal inhibitory concentration (IC50) in test [2] of 2.05 µM. For the same compound, the “Protection against IL-1 induced aggrecan degradation” value in test [2] (pig articular cartilage explants) is on record as “very effective”. For the same compound, in test [3], the “Release of aggrecanase-generated fragment with N-terminus 374ARGSV” value is listed as “blocked the release of this fragment in a concentration-dependent manner”.
On to GGWGPWGPWGDCSRTCGGG, for which the “Protection of aggrecan from cleavage by aggrecanase” value in the test on aggrecanase-1 (ADAMTS4) is on record as “protects aggrecan from cleavage by aggrecanase”.
